Results taken from paper PMC12692861, “Biotin-Linked Ursolic Acid Conjugates as Selective Anticancer Agents and Target-Identification Tools for Cancer Therapy” (Molecules, 2025).
Like-named read-outs stand apart in the source and are kept apart here.

Assays:
[1] = test system: MB49 cells; assay: Annexin V-FITC/PI apoptosis flow cytometry; type: cell-based, murine; conditions: Mus musculus, MB49, 24 h
Procedure: The potential of cells treated with UA or 5c to undergo dose-dependent apoptosis was explored using quantitative flow cytometric analysis, as shown in Figure 4. Utilizing a kit that detects quantitative binding of Annexin V to externalized phosphatidyl serine during the apoptosis cascade and permeability of Propidium iodide (PI) in cells undergoing cell death, we determined the cells at various stages of cell death following 24h incubation with UA and 5c in various bladder cancer cells.
We used a fluorescence-based Annexin V binding assay to determine the fraction of the cell population undergoing early and late apoptosis due to the cytotoxicity of the drugs. Cells plated in a 60 mm dish overnight at 0.3 × 10^6 cells/well were incubated with the selected drug at several doses for 24 h. Subsequently, treated cells were labeled with FITC-Annexin V using a kit (eBioscience™ Annexin V Apoptosis Detection Kits; Invitrogen # 88-8005-72, Thermo Fisher Scientific, Seoul, Korea) as per the manufacturer’s instructions. Intact cell suspension labeled with FITC-Annexin V and PI was run on the NovoCyte Quanteon flow cytometer, and data were acquired in list mode. Acquired data were analyzed using NovoExpress software (version 1.6.1). Cells treated with Staurosporine (0.2 µM) act as a positive control.

[2] = test system: 5637 cells; assay: MTT antiproliferative assay; type: cell-based, human; conditions: for IC50: Homo sapiens, 72 h, MTT, read-out: IC50 (Mean ± SD), 5637; for SI (selectivity index), 5637: IC50 MCF-12A / IC50 5637
Procedure: The synthesized hybrid conjugates 5a–d were evaluated for their antiproliferative activity against the established human bladder cancer cell lines T24 and 5637. Test compounds were dissolved in ultrapure dimethyl sulfoxide (DMSO), diluted in cell culture media, added to cells cultured in 96-well cluster wells, and incubated for 72 h. The concentration of DMSO in culture media was maintained at < 0.05%. As previously reported, the fraction of viable cells in the culture wells was compared to that in cultures with 0.05% DMSO-only using a colorimetric assay, the Methyl Tetrazolium Bromide (MTT) reduction assay. We determined the selectivity index (SI) of the compounds 5a–d against tumor cells by comparing their cytotoxicity to that of a non-tumorigenic breast epithelial cell line, MCF-12A, as well as a non-tumorigenic, immortalized urothelial cell line, UROtsa (Table 1, and Figure 2).
The antiproliferative activities of various compounds examined in this report were measured using the MTT (3-[4,5-dimethylthiazol-2-yl]-2,5-diphenyl-tetrazolium bromide) reduction assay, as previously described. Briefly, cells were seeded at 2 × 10^3 cells per well in a 96-well plate and cultured overnight. The cells were then treated with different doses (5 µM, 10 µM, 15 µM, 20 µM, 25 µM, 30 µM, 35 µM, 40 µM in DMSO) for 72 h. Viability of the treated cultures was estimated by conversion of MTT to the insoluble formazan after 3h incubation at 37 °C and 5% CO2. The purple-colored formazan crystals were dissolved in DMSO, and absorbance was recorded at wavelengths 570/640 nm using the Bio-Rad Benchmark Plus Microplate Reader. The percent of viable cells was calculated ODtreated cells/ODcontrol cell wells × 100.

[3] = test system: MB49; assay: Cell cycle phase fractionation by flow cytometry (PI); type: cell-based, murine; conditions: MB49, 24 h, mean ± SD n=3
From the text: Cells treated with some antiproliferative drugs are blocked from orderly progression from one stage of their mitotic cycle to the next due to inhibition of a specific stage of the cell cycle. Analysis by flow cytometry (FC) of DNA content in the nuclei of drug-treated cells is a well-established technique for evaluating the fractions of cells in each stage of the cell cycle based on their DNA content. In this study, we employed FC to examine whether treatment with UA or 5c affects the orderly cell cycle progression from G0/G1, S, and G2M before entering Mitosis (M). Figure 6 represents the effect of UA and 5c on cell cycle progression in four bladder cancer cell lines, 5637, HT-1376, T-24, and MB-49, after a […] treatment at a concentration of 12 µM. Following the treatment, nuclei suspensions from treated cells were prepared by direct cell lysis in a hypotonic solution, with simultaneous staining with PI (100 µg/mL). The resulting nuclei suspension and the samples were run on the flow cytometer and analyzed for DNA content.
Cells cultured in 35 mm diameter, 6-well cluster plates (Corning Inc., Corning, NY, USA) overnight at a density of 0.3 × 10^6 cells/well, and treated with various compounds at selected concentrations for 24 h. After completion of treatment, cells were washed twice with PBS, followed by the addition of Propidium Iodide (PI) containing […] solution [(0.1 mg/mL PI), 50mg Na-citrate, 15 µL of IGEPAL CA-630], 1 mL in each well, and incubated for 30–45 min at 37 °C and 5% CO2. After that data acquired using the NovoCyte Quanteon Flow Cytometer was analyzed using NovoExpress software (version 1.6.1).

[4] = test system: MB49 cells; assay: ROS estimation with H2DCFDA; type: cell-based, murine; conditions: MB49, 24 h; for ROS levels: 5–40 µM
Procedure: Since 5c was not toxic to non-tumorigenic cells, such as MCF12A and UROtsa, these cells were excluded from experiments aimed at identifying the broad mechanism of cytotoxicity. A common mechanism by which these antioxidants induce cytotoxicity in tumor cells is by generating Reactive Oxygen Species (ROS) selectively in fast-growing tumor cells. The levels of ROS generated by 5c exposed cells were evaluated with the oxidation of 2′,7′-dichlorodihydrofluorescein diacetate (H2DCFDA). It is a cell-permeant fluorescent probe used for detecting ROS production (Thermo Scientific Inc., Waltham, MA, USA). […] Figure 3 illustrates the quantification of intracellular ROS levels in four bladder cancer cell lines, 5637, T24, HT-1376, and MB49, following treatment with UA and its biotin-conjugated derivative, compound 5c.
The relative levels of intracellular ROS produced in untreated and drug-treated cells were analyzed by fluorimetry using the fluorescent probe H2DCFDA (Sigma-Aldrich, #D6883, St. Louis, MI, USA), as described previously. Briefly, cells cultured in a 96-well plate at 1 × 10^4 cells per well were treated with drugs of interest for 24 h rinsed with sterile PBS to remove excess drugs, and incubated with 10 μM DCFDA for 30 min at 37 °C and 5% CO2. Following three rinses with PBS, the fluorescence intensity was recorded at excitation: 485/20, emission: 528/20 using a BioTek Synergy HTX Multimode fluorescence plate reader (Agilent Technologies, Inc., Santa Clara, CA, USA), and the data were represented as percentage change compared to the respective untreated control.
Figure 3 Estimation of oxidative stress: Treatment with UA or 5c increased ROS levels in various bladder cancer cells. ROS levels were estimated at 24 h using DCFDA. The relative fluorescence unit (RFU) was normalized to that observed in untreated cells and expressed as a percent increase. Data are Means ± SD, (n = 4). Relative significance, expressed as p-value are calculated based on one-way ANOVA.

SMILES	viability at 10 µM ([1]; MB49, 10 µM, 24 h, read-out: Q4-3 (Q3, viable) cells)	viability at 15 µM ([1]; MB49, 15 µM, 24 h, read-out: Q4-3 (Q3, viable) cells)	IC50 [2]	SI (selectivity index), 5637 [2]	Cell-Cycle Phase-Fractions G1 [3]	Cell-Cycle Phase-Fractions G2/M [3]	Cell-Cycle Phase-Fractions S [3]	ROS levels [4]	ROS response relative to UA ([4]; 30–40 µM)	viability at 10 µM ([1]; read-out: Q4-3 (Q3, viable) cells, MB49, 10 µM, 24 h)	viability at 15 µM ([1]; read-out: Q4-3 (Q3, viable) cells, MB49, 15 µM, 24 h)
CC1CCC2(C(=O)OCCCCOC(=O)CCCCC3SCC4NC(=O)NC43)CCC3(C)C(=CCC4C5(C)CCC(O)C(C)(C)C5CCC43C)C2C1C [Compound 5c, 4-((5-((3aS,4S,6aR)-2-Oxohexahydro-1H-thieno [3,4-d]imidazol-4-yl)pentanoyl)oxy) butyl 3-hydroxy-urs-12-en-28-oate]	39.4%	35.6%	11 ± 0.19 µM	7.58	53.52 ± 1.25 % of total	18.43 ± 0.69 % of total	28.05 ± 0.56 % of total	concentration-dependent increase in ROS levels	more robust ROS response	–	–
C[C@H]1[C@H](C)CC[C@]2(C(=O)O)CC[C@]3(C)C(=CC[C@@H]4[C@@]5(C)CC[C@H](O)C(C)(C)[C@@H]5CC[C@]43C)[C@H]12 [UA, Ursolic acid]	–	–	13.4 ± 0.35 µM	4.19	59.75 ± 0.77 % of total	19.12 ± 1.09 % of total	21.13 ± 1.49 % of total	concentration-dependent increase in ROS levels	–	74.4%	64.5%
